How the values were obtained:
Kuramochi cells RB-WT = experiment: IncuCyte Kuramochi cell proliferation assay, RB-WT; assay type: cell-based; conditions: 72 hours, cell count
Outline: (§1)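 mApple-H2B-labelled Kuramochi cells were treated with a 10-point, half-log series (top 20 µM) and imaged at 0 and 72 h. Fluorescent nuclei were counted, and the 0–72 h fold change was normalized to DMSO wells. GI50 came from dose-response fits.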

Kuramochi cells RB-KO = experiment: IncuCyte Kuramochi cell proliferation assay, RB-KO; assay type: cell-based; conditions: 72 hours, cell count, batch mean
Outline: as §1

CDK2/Cyclin E1 = CDK2/Cyclin E1 (Homo sapiens, UniProt P24941); experiment: ADP-Glo Luminescent Kinase Assay (CDK2/E1-37C); assay type: biochemical; conditions: 0.18 nM CDK2/Cyclin E1, 100 μM ATP, Histone H1, 37° C.; read-out: ADPGLO (CDK2/E1-37C): IC50
Outline: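 Activated CDK2/Cyclin E1 (0.18 nM final) preincubated with compound 60 min at 37 °C, then reacted with 100 μM ATP and Histone H1 ([…]) for 90 min at 37 °C in HEPES pH 7.5 buffer. ADP-Glo luminescence normalized to % activity; IC50 from four-parameter fit.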

| SMILES | IC50 (Kuramochi cells RB-WT) [µM] | IC50 (Kuramochi cells RB-KO) [µM] | IC50 (CDK2/Cyclin E1) [µM] |
| --- | --- | --- | --- |
| CS(=O)(=O)NC(=O)c1c(COC[C@@H]2CN(C(=O)c3cnn(Cc4ccc(F)cc4)c3)CC23CN(C(=O)C2(C(F)(F)F)CC2)C3)cccc1C1CCC(F)(F)CC1 [I′-44, (S)-2-(4,4-difluorocyclohexyl)-6-(((6-(1-(4-fluorobenzyl)-1H-pyrazole-4-carbonyl)-2-(1-(trifluoromethyl)cyclopropane-1-carbonyl)-2,6-diazaspiro[3.4]octan-8-yl)methoxy)methyl)-N-(methylsulfonyl)benzamide] | 0.5 to 5 | > 10 | ≤ 0.5 |
| CC(C)(C(=O)N1CC2(CN(C(=O)c3cnn(Cc4cc(F)cc(F)c4)c3)C[C@H]2COCc2cccc(C3CCC(F)(F)CC3)c2C(=O)O)C1)C(F)(F)F [I′-45, (S)-2-(((6-(1-(3,5-difluorobenzyl)-1H-pyrazole-4-carbonyl)-2-(3,3,3-trifluoro-2,2-dimethylpropanoyl)-2,6-diazaspiro[3.4]octan-8-yl)methoxy)methyl)-6-(4,4-difluorocyclohexyl)benzoic acid] | 0.5 to 5 | > 10 | ≤ 0.5 |
| O=C(O)c1c(/C=C/CC2CN(C(=O)c3cnn(Cc4ccc(F)cc4)c3)CC23CN(C(=O)C2(C(F)(F)F)CC2)C3)cccc1C1CCC(F)(F)CC1 (stereo not drawn) [I′-46] | 5 to 10 | > 10 | 0.5 to 5 |
| CC1CCC(c2cccc(COC[C@@H]3CN(c4cc(F)c(F)c5ncsc45)CC34CN(C(=O)C(C)(C)C(F)(F)F)C4)c2C(=O)O)CC1 (stereo partly drawn) [I′-47, (S)-2-(((6-(4,5-difluorobenzo[d]thiazol-7-yl)-2-(3,3,3-trifluoro-2,2-dimethylpropanoyl)-2,6-diazaspiro[3.4]octan-8-yl)methoxy)methyl)-6-(4-methylcyclohexyl)benzoic acid] | > 10 | > 10 | ≤ 0.5 |
| O=C(O)c1c(COC[C@@H]2CN(c3cc(C(F)(F)F)c(F)c4ncsc34)CC23CN(C(=O)C2(C(F)(F)F)CC2)C3)cccc1C1CCC(F)(F)CC1 [I′-48] | ≤ 0.5 | > 10 | 5 to 10 |
| O=C(O)c1c(COC[C@@H]2CN(c3cc(Cl)c(Cl)c4ncsc34)CC23CN(C(=O)C2(C(F)(F)F)CC2)C3)cccc1C1CCC(F)(F)CC1 [I′-49] | > 10 | > 10 | 0.5 to 5 |
| O=C(O)c1c(COC[C@@H]2CN(c3cc(F)c(F)c4nc(C(F)(F)F)sc34)CC23CN(C(=O)C2(C(F)(F)F)CC2)C3)cccc1C1CCC(F)(F)CC1 [I′-50] | > 10 | > 10 | > 10 |
| CC(C)(C(=O)N1CC2(CN(C(=O)c3cnn(Cc4cc(F)c(F)cc4F)c3)C[C@H]2COCc2cccc(C3CCC(F)(F)CC3)c2C(=O)O)C1)C(F)(F)F [I′-52, (S)-2-(4,4-difluorocyclohexyl)-6-(((2-(3,3,3-trifluoro-2,2-dimethylpropanoyl)-6-(1-(2,4,5-trifluorobenzyl)-1H-pyrazole-4-carbonyl)-2,6-diazaspiro[3.4]octan-8-yl)methoxy)methyl)benzoic acid] | 0.5 to 5 | > 10 | ≤ 0.5 |
| CC(C)(C(=O)N1CC2(CN(C(=O)c3cnn(Cc4cc(F)c(F)c(F)c4)c3)C[C@H]2COCc2cccc(C3CCC(F)(F)CC3)c2C(=O)O)C1)C(F)(F)F [I′-53] | 0.5 to 5 | > 10 | ≤ 0.5 |
| O=C(c1cnn(Cc2ccc(F)cc2)c1)N1C[C@@H](COCc2cccc(C3CCC(F)(F)CC3)c2-c2nn[nH]n2)C2(C1)CN(C(=O)C1(C(F)(F)F)CC1)C2 [I′-54, (S)-(8-(((3-(4,4-difluorocyclohexyl)-2-(2H-tetrazol-5-yl)benzyl)oxy)methyl)-2-(1-(trifluoromethyl)cyclopropane-1-carbonyl)-2,6-diazaspiro[3.4]octan-6-yl)(1-(4-fluorobenzyl)-1H-pyrazol-4-yl)methanone] | 5 to 10 | > 10 | ≤ 0.5 |
| O=C(c1cnn(Cc2ccc(F)cc2)c1)N1CC(COCc2cccc(C3CCC(F)(F)CC3)c2-c2noc(=O)[nH]2)C2(C1)CN(C(=O)C1(C(F)(F)F)CC1)C2 (stereo not drawn) [I′-55, 3-(2-(4,4-difluorocyclohexyl)-6-(((6-(1-(4-fluorobenzyl)-1H-pyrazole-4-carbonyl)-2-(1-(trifluoromethyl)cyclopropane-1-carbonyl)-2,6-diazaspiro[3.4]octan-8-yl)methoxy)methyl)phenyl)-1,2,4-oxadiazol-5(4H)-one] | 5 to 10 | > 10 | ≤ 0.5 |
| O=C(c1cnn(Cc2ccc(F)cc2)c1)N1CC(COCc2cccc(C3CCC(F)(F)CC3)c2C(=O)C(F)(F)F)C2(C1)CN(C(=O)C1(C(F)(F)F)CC1)C2 (stereo not drawn) [I′-56] | 0.5 to 5 | > 10 | > 10 |
| NC(=O)c1c(COC[C@@H]2CN(C(=O)c3cnn(Cc4ccccc4C(=O)O)c3)CC23CN(C(=O)C2(C(F)(F)F)CC2)C3)cccc1C1CCC(F)(F)CC1 [I′-57, (S)-2-((4-(8-(((2-carbamoyl-3-(4,4-difluorocyclohexyl)benzyl)oxy)methyl)-2-(1-(trifluoromethyl)cyclopropane-1-carbonyl)-2,6-diazaspiro[3.4]octane-6-carbonyl)-1H-pyrazol-1-yl)methyl)benzoic acid] | 5 to 10 | 0.5 to 5 | ≤ 0.5 |
| CC(C)(C(=O)N1CC2(CN(C(=O)c3cnn(Cc4ccc(F)c(F)c4)c3)C[C@H]2COCc2cccc(C3CCC(F)(F)CC3)c2C(=O)O)C1)C(F)(F)F [I′-58, (S)-2-(((6-(1-(3,4-difluorobenzyl)-1H-pyrazole-4-carbonyl)-2-(3,3,3-trifluoro-2,2-dimethylpropanoyl)-2,6-diazaspiro[3.4]octan-8-yl)methoxy)methyl)-6-(4,4-difluorocyclohexyl)benzoic acid] | > 10 | > 10 | ≤ 0.5 |
| NC(=O)c1c(COC[C@@H]2CN(c3cc(C(=O)O)cc4ncsc34)CC23CN(C(=O)C2(C(F)(F)F)CC2)C3)cccc1C1CCC(F)(F)CC1 [I′-59] | 0.5 to 5 | > 10 | > 10 |
| O=C(O)c1c(COCC2CN(Cc3cnn(Cc4ccc(F)cc4)c3)C(=O)C23CN(C(=O)C2(C(F)(F)F)CC2)C3)cccc1C1CCC(C(F)(F)F)CC1 (stereo not drawn) [I′-60] | > 10 | > 10 | > 10 |
| O=C(O)c1c(COC[C@@H]2CN(c3cc(F)c(F)c4[nH]ccc34)CC23CN(C(=O)C2(C(F)(F)F)CC2)C3)cccc1C1CCC(F)(F)CC1 [I′-61] | > 10 | > 10 | > 10 |
| O=C(O)c1c(COC[C@H]2CN(c3cc(F)c(F)c4ncsc34)CC23CN(C(=O)C2(C(F)(F)F)CC2)C3)cccc1C1CCC(F)(F)CC1 [I′-62] | > 10 | > 10 | 0.5 to 5 |
| O=C(c1cnn(Cc2ccc(F)cc2)c1)N1CC(COCc2cccc(C3CCC(F)(F)CC3)c2-c2n[nH]c(=O)o2)C2(C1)CN(C(=O)C1(C(F)(F)F)CC1)C2 (stereo not drawn) [I′-63, 5-(2-(4,4-difluorocyclohexyl)-6-(((6-(1-(4-fluorobenzyl)-1H-pyrazole-4-carbonyl)-2-(1-(trifluoromethyl)cyclopropane-1-carbonyl)-2,6-diazaspiro[3.4]octan-8-yl)methoxy)methyl)phenyl)-1,3,4-oxadiazol-2(3H)-one] | > 10 | > 10 | ≤ 0.5 |
| O=C(O)c1c(COCC2CN(c3ncnc4ncsc34)CC23CN(C(=O)C2(C(F)(F)F)CC2)C3)cccc1C1CCC(F)(F)CC1 (stereo not drawn) [I′-64, 2-(4,4-difluorocyclohexyl)-6-(((6-(thiazolo[4,5-d]pyrimidin-7-yl)-2-(1-(trifluoromethyl)cyclopropane-1-carbonyl)-2,6-diazaspiro[3.4]octan-8-yl)methoxy)methyl)benzoic acid] | 0.5 to 5 | 0.5 to 5 | ≤ 0.5 |
| CN(C)S(=O)(=O)NC(=O)c1c(COC[C@@H]2CN(C(=O)c3cnn(Cc4ccc(F)cc4)c3)CC23CN(C(=O)[C@H]2CC2(C)C)C3)cccc1C1CCC(F)(F)CC1 [I′-65, 2-(4,4-difluorocyclohexyl)-6-((((S)-2-((S)-2,2-dimethylcyclopropane-1-carbonyl)-6-(1-(4-fluorobenzyl)-1H-pyrazole-4-carbonyl)-2,6-diazaspiro[3.4]octan-8-yl)methoxy)methyl)-N—(N,N-dimethylsulfamoyl)benzamide] | > 10 | > 10 | ≤ 0.5 |
| CC(C)(C(=O)N1CC2(CN(C(=O)c3cnn(Cc4ccc(F)cc4)c3)C[C@H]2COCc2cccc(-c3ccc(C(F)(F)F)s3)c2C(=O)O)C1)C(F)(F)F [I′-66, (S)-2-(((6-(1-(4-fluorobenzyl)-1H-pyrazole-4-carbonyl)-2-(3,3,3-trifluoro-2,2-dimethylpropanoyl)-2,6-diazaspiro[3.4]octan-8-yl)methoxy)methyl)-6-(5-(trifluoromethyl)thiophen-2-yl)benzoic acid] | ≤ 0.5 | > 10 | ≤ 0.5 |
| COc1ccc(C2CCC(F)(F)CC2)c(C(=O)O)c1COCC1CN(C(=O)c2cnn(Cc3ccc(F)cc3)c2)CC12CN(C(=O)C1(C(F)(F)F)CC1)C2 (stereo not drawn) [I′-67] | > 10 | > 10 | ≤ 0.5 |
| CC(C)(C(=O)N1CC2(CN(C(=O)c3cnn(Cc4ccc(F)cc4)c3)CC2COCc2cc(F)cc(C3CCC(F)(F)CC3)c2C(=O)O)C1)C(F)(F)F (stereo not drawn) [I′-68, 2-(4,4-difluorocyclohexyl)-4-fluoro-6-(((6-(1-(4-fluorobenzyl)-1H-pyrazole-4-carbonyl)-2-(3,3,3-trifluoro-2,2-dimethylpropanoyl)-2,6-diazaspiro[3.4]octan-8-yl)methoxy)methyl)benzoic acid] | 5 to 10 | > 10 | ≤ 0.5 |

Source: patent US20260034123A1 (Cedilla Therapeutics, Inc., priority 2022, published 2026)
